{"source": "patent US20260049109A1", "about": "“NOVEL IMMUNOMODULATORY, NEUROMODULATORY, OSTEOGENIC, AND ANTI-OSTEOPOROTIC HKUOT-S2 PROTEIN THAT ENHANCES BONE FRACTURE REPAIRS AND SUPPRESSES OSTEOPOROSIS DEVELOPMENT” (The University of Hong Kong, priority 2022, published 2026)", "key": {"[1]": {"test_system": "mTOR1/4E-BP1/AKT1 axis", "assay": "XL388-induced mTOR inhibition during hMSCs-osteoblast differentiation (qPCR, western blot)", "format": "cell-based, human", "procedure": "hMSCs were differentiated into osteoblasts with/without […] XL388 or 0.1 μg ml^−1 HKUOT-S2 treatments for 7 days with medium replenishments every 3 days. The collected cell pellets were processed for qPCR and western blot analyses to establish the mechanism by which HKUOT-S2 promotes osteogenesis and new bone formation. The lists of all the genes and corresponding primer pairs as well as primary and secondary antibodies used for qPCR and western blot analyses are listed in Tables 6, 7 and 8."}, "[2]": {"test_system": "hMSCs", "assay": "hMSCs to osteoblast differentiation", "format": "cell-based, human", "procedure": "The hMSCs and MC3T3-1E cell lines were seeded at 2.5×10^4 cells/well and 2.5×10^3 cells/well of 6-well plate respectively, containing 2 ml of normal cell culture media. The cell culture media were then replaced with osteogenic media containing 100 nM Dex, 10 mM β-Gly and 0.28 mM Asc with or without the HKUOT-S2 protein. The cells were maintained in the osteogenic media for 14 days with media replacement every 3 days. The nondifferentiated cells maintained in the normal cell culture media were used as controls. The cell pellets were then collected and processed for osteogenic gene expression analysis by qPCR at the experimental endpoints.\nHigh Quality Total RNAs, with OD260/OD280 Between 1.98-2.00, were extracted from the in vitro experimented cell lines and the tissues harvested from the in vivo experiments using RNAiso plus reagent (Cat #9109) according to the manufacturer's protocol. The quality and quantity of the extracted RNAs were determined using the NanoDrop One (C) UV-VIS micro-volume spectrophotometer (Thermo Scientific). Equal amount of RNAs across the experimental groups were reverse transcribed into complementary DNA (cDNA) using the PrimeScript™ RT reagent Kit (cat #RR037A, Takara) and Peltier Thermal Cycler (Cat #PTC-100, MJ Research) according to the manufacturers' instructions. Specific primer pairs, equal amount of cDNA for the various experimental groups and the PowerUp™ SYBR™ Green Master Mix (Cat #A25742, Thermo Scientific) were used to prepare the qPCR reaction mix. 10 μl of the qPCR reaction mix of the control and HKUOT-S2 treatment groups, loaded into 96-well plate (0.2 ml) were used evaluate the HKUOT-S2-induced gene expressions in the cell lines from the in vitro and the harvested tissues from the in vivo experiments using the QuantStudio 5 real-time PCR system (Thermo Scientific). The HKUOT-S2-induced differentially gene expression fold changes were calculated by 2^−ΔΔCt method after housekeeping gene normalization."}, "[3]": {"test_system": "ovariectomized (OVX) mice", "assay": "OVX-induced osteoporosis, femur μCT", "format": "in vivo, mouse", "procedure": "A total of 32 female C57BL/6J mice at the age of 8-12 weeks old and weighing between 22-25 g were used in this study. All mice underwent dorsoventral surgical operation under anesthesia. The sham control underwent surgery without ovary removal. The ovaries were completely removed from the anterior uterine horns in the OVX group. There were four groups, namely sham control (n=8), OVX control (n=8), OVX+30 μg kg^−1 estrogen (E2, n=8), and OVX+2.18 mg kg^−1 HKUOT-S2 (n=8) treatment groups. The sham and OVX control mice were given subcutaneous of 200 μl of 1XBP. The OVX+E2 and OVX+HKUOT-S2 groups were given 200 μl E2 and HKUOT-S2 via subcutaneous and IP injections respectively. All treatments started 4 hrs after the surgery and thrice per week for 4 weeks post-surgery. Micro CT (μCT) scans were taken on day zero and biweekly post-surgery. At the experimental endpoint, all the mice in the groups were sacrificed under overdose of anesthesia, the bone tissues harvested and processed for bone histomorphometry and immunohistochemical analyses."}, "[4]": {"details": "250 nM XL388 alone, western blot"}, "[5]": {"details": "0.1 μg/ml HKUOT-S2, 0.01 μg/ml SEQ ID NO: 83"}, "[6]": {"details": "femur of OVX mice, 2.18 mg/Kg HKUOT-S2, 0.5 mg/Kg SEQ ID NO: 83, n=3"}}, "data": [{"molecule": "Cc1c(C(=O)N2CCOc3ccc(-c4ccc(N)nc4)cc3C2)ccc(S(C)(=O)=O)c1F", "note": "[XL388]", "values": [{"measurement": "4E-BP1 expression", "setting": "[1]; 125 nM XL388 alone, qPCR", "value": "significantly suppressed"}, {"measurement": "AKT1 expression", "setting": "[1]; 125 nM XL388 alone, qPCR", "value": "significantly suppressed"}, {"measurement": "MTOR1 expression", "setting": "[1]; 125 nM XL388 alone, qPCR", "value": "significantly suppressed"}, {"measurement": "RUNX2 expression", "setting": "[1]; 125 nM XL388 alone, qPCR", "value": "significantly suppressed"}, {"measurement": "S6K1 expression", "setting": "[1]; 125 nM XL388 alone, qPCR", "value": "significantly suppressed"}, {"measurement": "phosphorylation of 4E-BP1", "setting": "[1]; [4]", "value": "prevented"}, {"measurement": "phosphorylation of MTOR1", "setting": "[1]; [4]", "value": "prevented"}, {"measurement": "ALP expression", "setting": "[1]; XL388-induced mTOR inhibition", "value": "no effects"}]}, {"molecule": "TKSSLPGQTK (HKUOT-S2 peptide) [SEQ ID NO: 83]", "values": [{"measurement": "osteogenic effects compared to the HKUOT-S2 treatment", "setting": "[2]", "value": "robust"}, {"measurement": "ALP activities", "setting": "[2]; [5]", "value": "significantly increased"}, {"measurement": "ALP mRNA expression", "setting": "[2]; [5]", "value": "increasing"}, {"measurement": "oestrogen receptor α (ERα) mRNA expression", "setting": "[2]; [5]", "value": "increasing"}, {"measurement": "osteoblast biomineralization", "setting": "[2]; [5]", "value": "significantly increased"}, {"measurement": "COL-1A expression", "setting": "[2]; 0.01μ gml^−1", "value": "increasing"}, {"measurement": "osteoporosis suppression effects compared with the 2.18 mg/Kg HKUOT-S2 treatment group", "setting": "[3]; 0.5 mg/Kg SEQ ID NO: 83, OVX mice", "value": "stronger"}, {"measurement": "bone surface area to bone volume ratio (BS/BV)", "setting": "[3]; [6]", "value": "decreased"}, {"measurement": "bone surface area to tissue volume (BS/TV) ratio", "setting": "[3]; [6]", "value": "significantly increasing"}, {"measurement": "bone volume (BV/TV)", "setting": "[3]; [6]", "value": "significantly increasing"}, {"measurement": "trabecular number (Tb. N)", "setting": "[3]; [6]", "value": "significantly increasing"}, {"measurement": "trabecular separation (Tb. Sp)", "setting": "[3]; [6]", "value": "decreased"}, {"measurement": "trabecular thickness (Tb.th)", "setting": "[3]; [6]", "value": "significantly increasing"}]}]}
